Here are results for 14 molecules from ChEMBL document CHEMBL3045867, “Synthesis, characterization, and antimicrobial evaluation of novel naphthalene-based 1,2,4-triazoles” (2012).

≈ marks a conversion by molar mass, not a printed value.

What all share (format): functional
In one assay the test system is Aspergillus niger. In words: Antifungal activity against Aspergillus niger MTCC 282 after 72 hr. The note with it: MTCC 282, 72 h.
The test system of another assay is Staphylococcus aureus. In words: Antibacterial activity against Staphylococcus aureus MTCC 96 after 24 to 48 hr by serial broth dilution method.
In the next assay the test system is Pseudomonas aeruginosa. Nature of the assay: Antibacterial activity against Pseudomonas aeruginosa MTCC 1688 after 24 to 48 hr by serial broth dilution method. (Broth dilution looks for growth in wells or tubes with falling amounts of substance.)
Another assay has as its system Streptococcus pyogenes. In words: Antibacterial activity against Streptococcus pyogenes MTCC 442 after 24 to 48 hr by serial broth dilution method.
A further assay deals with Escherichia coli. In words: Antibacterial activity against Escherichia coli MTCC 443 after 24 to 48 hr by serial broth dilution method.
In a further assay the test system is Candida albicans. In words: Antifungal activity against Candida albicans MTCC 227 after 72 hr. The note with it: MTCC 227, 72 h.
In the next assay the test system is Aspergillus clavatus. In words: Antifungal activity against Aspergillus clavatus MTCC 1323 after 72 hr. The note with it: MTCC 1323, 72 h.

For `O=C(COc1ccc2ccccc2c1)Nn1c(S)nnc1-c1cccc2ccccc12`, the MIC99 – broadly, an inhibitory concentration at the 99% level, which refers to growth in some studies and to a panel of isolates in others – with Aspergillus niger amounted to 500 µg/mL (≈ 1170 µM); against Staphylococcus aureus, 250 µg/mL (≈ 586 µM); in the assay with Pseudomonas aeruginosa, 250 µg/mL (≈ 586 µM); against Streptococcus pyogenes it was 500 µg/mL (≈ 1170 µM); against Escherichia coli, 100 µg/mL (≈ 234 µM); against Candida albicans, 500 µg/mL (≈ 1170 µM). In addition, in the assay with Aspergillus clavatus, the MIC99 came to 500 µg/mL (≈ 1170 µM).

In the case of `O=C(Cc1ccccc1)Nn1c(S)nnc1-c1cccc2ccccc12`, the MIC99 in the assay on Aspergillus niger is 500 µg/mL (≈ 1390 µM); with Staphylococcus aureus, 250 µg/mL (≈ 694 µM); against Pseudomonas aeruginosa, 500 µg/mL (≈ 1390 µM); with Streptococcus pyogenes it was 200 µg/mL (≈ 555 µM); in the assay with Escherichia coli it was 500 µg/mL (≈ 1390 µM); with Candida albicans, 1000 µg/mL (≈ 2770 µM). The molecule also gave an MIC99 against Aspergillus clavatus of 500 µg/mL (≈ 1390 µM).

As for `CC1(C)S[C@@H]2[C@H](NC(=O)[C@H](N)c3ccccc3)C(=O)N2[C@H]1C(=O)O` [AMPICILLIN], the MIC99 came out at 250 µg/mL (≈ 715 µM) in the assay on Staphylococcus aureus, 100 µg/mL (≈ 286 µM) in the assay on Pseudomonas aeruginosa, 100 µg/mL (≈ 286 µM) against Streptococcus pyogenes and 100 µg/mL (≈ 286 µM) against Escherichia coli.

With `O=C(Nn1c(S)nnc1-c1cccc2ccccc12)c1ccccc1O`, the MIC99 against Aspergillus niger worked out at 500 µg/mL (≈ 1380 µM); in the assay on Staphylococcus aureus, 500 µg/mL (≈ 1380 µM); in the assay on Pseudomonas aeruginosa it was 1000 µg/mL (≈ 2760 µM); in the assay on Streptococcus pyogenes, 500 µg/mL (≈ 1380 µM); in the assay with Escherichia coli, 1000 µg/mL (≈ 2760 µM); in the assay with Candida albicans it was 500 µg/mL (≈ 1380 µM). In addition, the MIC99 against Aspergillus clavatus stood at 200 µg/mL (≈ 552 µM).

Turning to `O=C(Nn1c(S)nnc1-c1cccc2ccccc12)c1ccccc1`, the MIC99 in the assay with Aspergillus niger turned out to be 1000 µg/mL (≈ 2890 µM); in the assay on Staphylococcus aureus, 500 µg/mL (≈ 1440 µM); in the assay on Pseudomonas aeruginosa, 50 µg/mL (≈ 144 µM); in the assay with Streptococcus pyogenes, 1000 µg/mL (≈ 2890 µM); in the assay on Escherichia coli, 500 µg/mL (≈ 1440 µM); in the assay with Candida albicans, 1000 µg/mL (≈ 2890 µM). The same molecule yielded an MIC99 with Aspergillus clavatus of 1000 µg/mL (≈ 2890 µM).

Consider `COc1ccccc1C(=O)Nn1c(S)nnc1-c1cccc2ccccc12`, for which the MIC99 in the assay with Aspergillus niger was 200 µg/mL (≈ 531 µM); in the assay on Staphylococcus aureus, 250 µg/mL (≈ 664 µM); in the assay on Pseudomonas aeruginosa, 250 µg/mL (≈ 664 µM); against Streptococcus pyogenes it was 500 µg/mL (≈ 1330 µM); against Escherichia coli it was 100 µg/mL (≈ 266 µM); against Candida albicans it was 200 µg/mL (≈ 531 µM). Besides, the MIC99 in the assay on Aspergillus clavatus came out at 500 µg/mL (≈ 1330 µM).

For `O=C(Nn1c(S)nnc1-c1cccc2ccccc12)c1ccccc1Cl`, the MIC99 against Aspergillus niger was 100 µg/mL (≈ 263 µM); against Staphylococcus aureus, 500 µg/mL (≈ 1310 µM); with Pseudomonas aeruginosa, 100 µg/mL (≈ 263 µM); against Streptococcus pyogenes, 500 µg/mL (≈ 1310 µM); in the assay on Escherichia coli, 50 µg/mL (≈ 131 µM); in the assay on Candida albicans, 50 µg/mL (≈ 131 µM). In addition, in the assay on Aspergillus clavatus, the MIC99 stood at 250 µg/mL (≈ 656 µM).

Take `COC1=CC(=O)C[C@@H](C)[C@]12Oc1c(Cl)c(OC)cc(OC)c1C2=O` [GRISEOFULVIN]: the MIC99 in the assay with Aspergillus niger came to 100 µg/mL (≈ 283 µM); in the assay on Candida albicans, 500 µg/mL (≈ 1420 µM); against Aspergillus clavatus it was 100 µg/mL (≈ 283 µM).

As for `O=C(Nn1c(S)nnc1-c1cccc2ccccc12)c1ccc(O)cc1`, the MIC99 in the assay with Aspergillus niger stood at 500 µg/mL (≈ 1380 µM); with Staphylococcus aureus, 100 µg/mL (≈ 276 µM); against Pseudomonas aeruginosa, 100 µg/mL (≈ 276 µM); in the assay on Streptococcus pyogenes, 500 µg/mL (≈ 1380 µM); with Escherichia coli, 250 µg/mL (≈ 690 µM); against Candida albicans, 500 µg/mL (≈ 1380 µM). In the assay with Aspergillus clavatus, this molecule showed an MIC99 of 500 µg/mL (≈ 1380 µM).

For `O=C(Nn1c(S)nnc1-c1cccc2ccccc12)c1ccc([N+](=O)[O-])cc1`, the MIC99 in the assay on Aspergillus niger was determined as 50 µg/mL (≈ 128 µM); against Staphylococcus aureus it was 250 µg/mL (≈ 639 µM); against Pseudomonas aeruginosa, 25 µg/mL (≈ 63.9 µM); in the assay with Streptococcus pyogenes it was 500 µg/mL (≈ 1280 µM); in the assay with Escherichia coli it was 50 µg/mL (≈ 128 µM); with Candida albicans, 50 µg/mL (≈ 128 µM). In addition, the MIC99 in the assay with Aspergillus clavatus was found to be 50 µg/mL (≈ 128 µM).

Take `O=C(Nn1c(S)nnc1-c1cccc2ccccc12)c1cccc([N+](=O)[O-])c1`: the MIC99 in the assay on Aspergillus niger worked out at 200 µg/mL (≈ 511 µM); against Staphylococcus aureus it was 100 µg/mL (≈ 255 µM); in the assay with Pseudomonas aeruginosa it was 100 µg/mL (≈ 255 µM); in the assay on Streptococcus pyogenes, 500 µg/mL (≈ 1280 µM); against Escherichia coli, 100 µg/mL (≈ 255 µM); against Candida albicans, 200 µg/mL (≈ 511 µM). The molecule further displayed an MIC99 in the assay with Aspergillus clavatus of 100 µg/mL (≈ 255 µM).

For the molecule `Cc1ccccc1C(=O)Nn1c(S)nnc1-c1cccc2ccccc12`, the MIC99 was 500 µg/mL (≈ 1390 µM) with Aspergillus niger; 500 µg/mL (≈ 1390 µM) against Staphylococcus aureus; 100 µg/mL (≈ 277 µM) in the assay with Pseudomonas aeruginosa; 100 µg/mL (≈ 277 µM) against Streptococcus pyogenes; 100 µg/mL (≈ 277 µM) in the assay on Escherichia coli; 200 µg/mL (≈ 555 µM) in the assay on Candida albicans. In the assay with Aspergillus clavatus, this molecule showed an MIC99 of 100 µg/mL (≈ 277 µM).

With `O=C(Nn1c(S)nnc1-c1cccc2ccccc12)c1cccc(Cl)c1`, the MIC99 was 50 µg/mL (≈ 131 µM) in the assay with Aspergillus niger; 250 µg/mL (≈ 656 µM) in the assay with Staphylococcus aureus; 250 µg/mL (≈ 656 µM) in the assay on Pseudomonas aeruginosa; 100 µg/mL (≈ 263 µM) against Streptococcus pyogenes; 25 µg/mL (≈ 65.6 µM) with Escherichia coli; 50 µg/mL (≈ 131 µM) against Candida albicans. Besides, in the assay on Aspergillus clavatus, the MIC99 is 50 µg/mL (≈ 131 µM).

On to `O=C(Nn1c(S)nnc1-c1cccc2ccccc12)c1ccc2cccc([N+](=O)[O-])c2c1`, for which the MIC99 came to 100 µg/mL (≈ 227 µM) in the assay with Aspergillus niger; 250 µg/mL (≈ 566 µM) with Staphylococcus aureus; 100 µg/mL (≈ 227 µM) in the assay on Pseudomonas aeruginosa; 250 µg/mL (≈ 566 µM) with Streptococcus pyogenes; 200 µg/mL (≈ 453 µM) against Escherichia coli; 100 µg/mL (≈ 227 µM) in the assay with Candida albicans. Further, in the assay with Aspergillus clavatus, the MIC99 was found to be 50 µg/mL (≈ 113 µM).
